Measurements as given in ChEMBL document CHEMBL1201862, “PubChem BioAssay data set” (2004).
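Interpolation was linear, between the two tested concentrations surrounding the appropriate level; five concentrations were tested over 48 hours in 96-well plates. GI50 marks 50% less growth.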 Active and inactive are the calls of the source. Rule as the data show it: active = GI50 up to about 1.1 µM and inactive = higher.

What was measured:
Assay in all cases: NCI-60 cell line screen, 48 h
SW-620 = tested on: SW-620
COLO 205 = tested on: COLO 205
SF-295 = tested on: SF-295
BT-549 = tested on: BT-549
DU-145 = tested on: DU-145
MCF7 = tested on: MCF7
Hs-578T = tested on: Hs-578T
HOP-62 = tested on: HOP-62
HCC 2998 = tested on: HCC 2998
A498 = tested on: A498
Malme-3M = tested on: Malme-3M
OVCAR-4 = tested on: OVCAR-4
OVCAR-3 = tested on: OVCAR-3
KM12 = tested on: KM12
HL-60 = tested on: HL-60
TK-10 = tested on: TK-10
SNB-19 = tested on: SNB-19
M14 = tested on: M14
MOLT-4 = tested on: MOLT-4
OVCAR-8 = tested on: OVCAR-8
SK-MEL-2 = tested on: SK-MEL-2
HT-29 = tested on: HT-29
NCI-H23 = tested on: NCI-H23
UO-31 = tested on: UO-31
SF-268 = tested on: SF-268
SNB-75 = tested on: SNB-75
SR = tested on: SR
NCI-H522 = tested on: NCI-H522
MDA-N = tested on: MDA-N
SK-MEL-5 = tested on: SK-MEL-5
OVCAR-5 = tested on: OVCAR-5
A549 = tested on: A549
ACHN = tested on: ACHN
786-0 = tested on: 786-0
K562 = tested on: K562
NCI-H460 = tested on: NCI-H460
UACC-257 = tested on: UACC-257
SF-539 = tested on: SF-539
HCT-15 = tested on: HCT-15
SK-MEL-28 = tested on: SK-MEL-28
SN12C = tested on: SN12C
SK-OV-3 = tested on: SK-OV-3
HCT-116 = tested on: HCT-116
RXF 393 = tested on: RXF 393
UACC-62 = tested on: UACC-62
NCI-H226 = tested on: NCI-H226
CCRF-CEM = tested on: CCRF-CEM
MDA-MB-435 = tested on: MDA-MB-435
U-251 = tested on: U-251
RPMI-8226 = tested on: RPMI-8226
MDA-MB-231 = tested on: MDA-MB-231
NCI/ADR-RES = tested on: NCI/ADR-RES
CAKI-1 = tested on: CAKI-1
EKVX = tested on: EKVX
T47D = tested on: T47D
HOP-92 = tested on: HOP-92
LOX IMVI = tested on: LOX IMVI
PC-3 = tested on: PC-3
IGROV-1 = tested on: IGROV-1

## COc1ccc(N2C(=O)CC(=O)N(C(=O)CCCCCCCCC(=O)N3C(=O)CC(=O)N(c4ccc(OC)cc4)C3=S)C2=S)cc1
SW-620
  GI50: > 100 µM (inactive)
COLO 205
  GI50: > 100 µM (inactive)
SF-295
  GI50: > 100 µM (inactive)
BT-549
  GI50: 33.9 µM (inactive)
DU-145
  GI50: > 100 µM (inactive)
MCF7
  GI50: > 100 µM (inactive)
Hs-578T
  GI50: > 100 µM (inactive)
HOP-62
  GI50: > 100 µM (inactive)
HCC 2998
  GI50: > 100 µM (inactive)
A498
  GI50: > 100 µM (inactive)
Malme-3M
  GI50: > 100 µM (inactive)
OVCAR-4
  GI50: > 100 µM (inactive)
OVCAR-3
  GI50: > 100 µM (inactive)
KM12
  GI50: 79.6 µM (inactive)
HL-60
  GI50: 95.9 µM (inactive)
TK-10
  GI50: > 100 µM (inactive)
SNB-19
  GI50: > 100 µM (inactive)
M14
  GI50: > 100 µM (inactive)
MOLT-4
  GI50: 54.3 µM (inactive)
OVCAR-8
  GI50: > 100 µM (inactive)
SK-MEL-2
  GI50: > 100 µM (inactive)
HT-29
  GI50: > 100 µM (inactive)
NCI-H23
  GI50: > 100 µM (inactive)
UO-31
  GI50: 79.6 µM (inactive)
SF-268
  GI50: > 100 µM (inactive)
SNB-75
  GI50: > 100 µM (inactive)
SR
  GI50: 39.4 µM (inactive)
NCI-H522
  GI50: 65.2 µM (inactive)
MDA-N
  GI50: 57.4 µM (inactive)
SK-MEL-5
  GI50: 57.9 µM (inactive)
OVCAR-5
  GI50: > 100 µM (inactive)
A549
  GI50: > 100 µM (inactive)
ACHN
  GI50: > 100 µM (inactive)
786-0
  GI50: > 100 µM (inactive)
K562
  GI50: 44.3 µM (inactive)
NCI-H460
  GI50: > 100 µM (inactive)
UACC-257
  GI50: > 100 µM (inactive)
SF-539
  GI50: > 100 µM (inactive)
HCT-15
  GI50: > 100 µM
SK-MEL-28
  GI50: > 100 µM (inactive)
SN12C
  GI50: > 100 µM (inactive)
SK-OV-3
  GI50: > 100 µM (inactive)
HCT-116
  GI50: > 100 µM (inactive)
RXF 393
  GI50: > 100 µM (inactive)
UACC-62
  GI50: > 100 µM (inactive)
NCI-H226
  GI50: > 100 µM (inactive)
CCRF-CEM
  GI50: 31.6 µM (inactive)
MDA-MB-435
  GI50: 61.1 µM (inactive)
U-251
  GI50: > 100 µM (inactive)
RPMI-8226
  GI50: 44 µM (inactive)
MDA-MB-231
  GI50: > 100 µM (inactive)
NCI/ADR-RES
  GI50: > 100 µM (inactive)
CAKI-1
  GI50: > 100 µM (inactive)
EKVX
  GI50: > 100 µM (inactive)
T47D
  GI50: 97.9 µM (inactive)
HOP-92
  GI50: > 100 µM (inactive)
LOX IMVI
  GI50: 78.3 µM (inactive)
PC-3
  GI50: > 100 µM (inactive)

## CCOC(=O)C1(Cc2ccccc2)C=CN(C(=O)c2ccccc2)C=C1
SW-620
  GI50: 32.2 µM (inactive)
COLO 205
  GI50: 17.8 µM (inactive)
SF-295
  GI50: 36 µM (inactive)
BT-549
  GI50: 33.8 µM (inactive)
DU-145
  GI50: 57.3 µM (inactive)
MCF7
  GI50: 30.4 µM (inactive)
Hs-578T
  GI50: 32.5 µM (inactive)
HOP-62
  GI50: 45.9 µM (inactive)
HCC 2998
  GI50: 63.4 µM (inactive)
A498
  GI50: 22.9 µM (inactive)
Malme-3M
  GI50: 26.6 µM (inactive)
OVCAR-4
  GI50: 42.8 µM (inactive)
OVCAR-3
  GI50: 41.3 µM (inactive)
KM12
  GI50: 36.9 µM (inactive)
HL-60
  GI50: 16.6 µM (inactive)
TK-10
  GI50: 28.4 µM (inactive)
SNB-19
  GI50: 46.5 µM (inactive)
M14
  GI50: 35.5 µM (inactive)
MOLT-4
  GI50: 20.6 µM (inactive)
OVCAR-8
  GI50: 34.4 µM (inactive)
SK-MEL-2
  GI50: 18.1 µM (inactive)
HT-29
  GI50: 34.2 µM (inactive)
NCI-H23
  GI50: 30.1 µM (inactive)
UO-31
  GI50: 45.8 µM (inactive)
SF-268
  GI50: 47.4 µM (inactive)
SNB-75
  GI50: 17.8 µM (inactive)
SR
  GI50: 22.4 µM (inactive)
NCI-H522
  GI50: 24.5 µM (inactive)
MDA-N
  GI50: 24.3 µM (inactive)
SK-MEL-5
  GI50: 15.1 µM (inactive)
IGROV-1
  GI50: 61.5 µM (inactive)
OVCAR-5
  GI50: > 100 µM (inactive)
A549
  GI50: 42.4 µM (inactive)
ACHN
  GI50: 34.1 µM (inactive)
786-0
  GI50: 43.7 µM (inactive)
K562
  GI50: 27 µM (inactive)
NCI-H460
  GI50: 51.1 µM (inactive)
UACC-257
  GI50: 20.6 µM (inactive)
SF-539
  GI50: 42.9 µM (inactive)
HCT-15
  GI50: 32.1 µM
SK-MEL-28
  GI50: 30.8 µM (inactive)
SN12C
  GI50: 29.6 µM (inactive)
SK-OV-3
  GI50: > 100 µM (inactive)
HCT-116
  GI50: 29.8 µM (inactive)
RXF 393
  GI50: 27.5 µM (inactive)
UACC-62
  GI50: 20.2 µM (inactive)
NCI-H226
  GI50: > 100 µM (inactive)
CCRF-CEM
  GI50: 20.9 µM (inactive)
MDA-MB-435
  GI50: 29.2 µM (inactive)
U-251
  GI50: 29.2 µM (inactive)
RPMI-8226
  GI50: 18 µM (inactive)
MDA-MB-231
  GI50: 37 µM (inactive)
NCI/ADR-RES
  GI50: 36.6 µM (inactive)
CAKI-1
  GI50: 38.5 µM (inactive)
EKVX
  GI50: 32.9 µM (inactive)
T47D
  GI50: 16.1 µM (inactive)
HOP-92
  GI50: 23.4 µM (inactive)
LOX IMVI
  GI50: 34.4 µM (inactive)
PC-3
  GI50: 25.4 µM (inactive)
